The values below come from US10758549B2, “Compositions of obeticholic acid and methods of use” (Intercept Pharmaceuticals, Inc., priority 2015, dated 2020).

The nature of series [1]: Particle size distribution, dry dispersion laser diffraction (Sympatec). The class given is physicochemical. Conditions: for D10 / D25 / D50 / D75 / D90 / D95: in µm (unit assumed); for PSD X10 / PSD X50 / PSD X90: spiral jet mill, JetPharma. As to the method: Particle size of agglomeration was identified as playing a primary role in the release rate and dissolution and variability in the blend uniformity and content uniformity of the tablet formulations. In order to obtain an appropriate particle size distribution (PSD), milling of obeticholic acid was investigated. The particle size of the formulations was reduced using comilling and jet milling to improve its dissolution release profile. Particle size analysis was performed using a dry dispersion method and analyzed by laser diffraction using Sympatec equipment.
Particle size distribution was assessed using a dry dispersion method analyzed by laser diffraction using a Sympatec Laser Helos/KF-Magic F71000 with Rodos Dispersing Unit. The OCA sample (0.5 g sample) was tested as a dry powder. The parameters for the validated particle size analysis method are described below:
Apparatus: Sympatec Laser Helos/KF-Magic F71000 with Rodos Dispersing Unit, Vibri sampling unit with Sniffer rotation, Nilfisk exhaustion or equivalent.
Dispersing principle: Dry.

The next series in a line: Surface area by BET. The class given is physicochemical. As to the method:
The impact of jet-milling on API particle size and surface area is detailed in Table 4-1 and Table 4-2, respectively. Surface area was tested per a BET (Brunauer, Emmett, and Teller theory). The BET method for analyzing surface area is based on adsorption of gas on a surface. The amount of gas adsorbed at a given pressure allows a determination of the surface area.

[2] abbreviates: Before jet-milling (unmicronized).

“And” between values parts separate entries of the source, which are not always exact repeats. Equal values may be shown once.

In series [1], `CC[C@H]1[C@@H](O)[C@@H]2[C@H](CC[C@]3(C)[C@@H]([C@H](C)CCC(=O)O)CC[C@@H]23)[C@@]2(C)CC[C@@H](O)C[C@@H]12` [Comilled with 0.46 mm screen] showed a D10 of 5.7, a D25 of 122.9, a D50 of 217.5 and a D75 of 283.0. For the same molecule, in series [1], the D90 worked out at 335.1 and the D95 stood at 360.3.

As for `CC[C@H]1[C@@H](O)[C@@H]2[C@H](CC[C@]3(C)[C@@H]([C@H](C)CCC(=O)O)CC[C@@H]23)[C@@]2(C)CC[C@@H](O)C[C@@H]12` [Comilled with 0.61 mm screen], in series [1], the D10 was 5.5 and 4.1; the D25 is 106.6 and 102.2; the D50 was 223.2 and 263.1; the D75 is 320.8 and 351.0. In addition, in series [1], the D90 is 393.8 and 410.9; the D95 was 429.8 and 447.9.

With `CC[C@H]1[C@@H](O)[C@@H]2[C@H](CC[C@]3(C)[C@@H]([C@H](C)CCC(=O)O)CC[C@@H]23)[C@@]2(C)CC[C@@H](O)C[C@@H]12` [Comilled with 1.14 mm screen], in series [1], the D10 worked out at 7.9, the D25 is 73.9, the D50 is 239.3 and the D75 was found to be 340.8. In series [1], this molecule registered a D90 of 412.0 and a D95 of 452.7.

Regarding `CC[C@H]1[C@@H](O)[C@@H]2[C@H](CC[C@]3(C)[C@@H]([C@H](C)CCC(=O)O)CC[C@@H]23)[C@@]2(C)CC[C@@H](O)C[C@@H]12` [JP1307001], in series [1], the “PSD X10” value is “X10: 1 μm”, the “PSD X50” value was “X50: 5 μm” and the “PSD X90” value is given as “X90: 20 μm”.

Consider `CC[C@H]1[C@@H](O)[C@@H]2[C@H](CC[C@]3(C)[C@@H]([C@H](C)CCC(=O)O)CC[C@@H]23)[C@@]2(C)CC[C@@H](O)C[C@@H]12` [JP1408001], for which, in series [1], the “PSD X10” value is reported as “X10: 1 μm”, the “PSD X50” value is on record as “X50: 5 μm” and the “PSD X90” value is on record as “X90: 19 μm”.

Consider `CC[C@H]1[C@@H](O)[C@@H]2[C@H](CC[C@]3(C)[C@@H]([C@H](C)CCC(=O)O)CC[C@@H]23)[C@@]2(C)CC[C@@H](O)C[C@@H]12` [JP1408002], for which, in series [1], the “PSD X10” value is on record as “X10: 1 μm”, the “PSD X50” value is “X50: 4 μm” and the “PSD X90” value was “X90: 14 μm”.

With `CC[C@H]1[C@@H](O)[C@@H]2[C@H](CC[C@]3(C)[C@@H]([C@H](C)CCC(=O)O)CC[C@@H]23)[C@@]2(C)CC[C@@H](O)C[C@@H]12` [JP1408003], in series [1], the “PSD X10” value was “X10: 1 μm”, the “PSD X50” value was “X50: 4 μm” and the “PSD X90” value is listed as “X90: 15 μm”.

In series [1], `CC[C@H]1[C@@H](O)[C@@H]2[C@H](CC[C@]3(C)[C@@H]([C@H](C)CCC(=O)O)CC[C@@H]23)[C@@]2(C)CC[C@@H](O)C[C@@H]12` [Jet mill, classifier speed 2000 rpm] returned a D16 of 2.3 µm, a D84 of 57.2 µm, a D99 of 97.9 µm and a D10 of 1.7. In series [1], this molecule came in with a D50 of 10.9 and a D90 of 69.3.

`CC[C@H]1[C@@H](O)[C@@H]2[C@H](CC[C@]3(C)[C@@H]([C@H](C)CCC(=O)O)CC[C@@H]23)[C@@]2(C)CC[C@@H](O)C[C@@H]12` [Jet mill, classifier speed 4000 rpm]: in series [1], the D16 was found to be 1.6 µm, the D84 came to 17 µm, the D99 came to 36 µm and the D10 is recorded as 1.3. In series [1], this molecule showed a D50 of 3.8 and a D90 of 21.7.

In series [1], `CC[C@H]1[C@@H](O)[C@@H]2[C@H](CC[C@]3(C)[C@@H]([C@H](C)CCC(=O)O)CC[C@@H]23)[C@@]2(C)CC[C@@H](O)C[C@@H]12` [Jet mill, classifier speed 5000 rpm] came in with a D16 of 1.7 µm, a D84 of 15.2 µm, a D99 of 55.8 µm and a D10 of 1.3. In series [1], the D50 came to 4.2 and the D90 came to 18.9.

In series [1], `CC[C@H]1[C@@H](O)[C@@H]2[C@H](CC[C@]3(C)[C@@H]([C@H](C)CCC(=O)O)CC[C@@H]23)[C@@]2(C)CC[C@@H](O)C[C@@H]12` [Jet mill, classifier speed 10000 rpm] registered a D16 of 1.4 µm, a D84 of 4.7 µm, a D99 of 9 µm and a D10 of 1.1. In series [1], this molecule displayed a D50 of 2.7 and a D90 of 5.6.

Regarding `CC[C@H]1[C@@H](O)[C@@H]2[C@H](CC[C@]3(C)[C@@H]([C@H](C)CCC(=O)O)CC[C@@H]23)[C@@]2(C)CC[C@@H](O)C[C@@H]12` [OCA Example # 1], in series [1] (After jet-milling (micronized)), the Dv (10) is 0.7 µm, the Dv (50) is 6.1 µm, the Dv (90) was determined as 18.8 µm and the Dv (99) came out at 30.8 µm. In series [1] (setting [2]), this molecule had a Dv (10) of 2.6 µm, a Dv (50) of 26 µm, a Dv (90) of 162 µm and a Dv (99) of 419 µm. Also, in the series “Surface area by BET” (After jet-milling (micronized)), the “Surface Area (m^2/kg)” value came to 3178 m^2/kg. In addition, the “Surface Area (m^2/kg)” value in the series “Surface area by BET” (setting [2]) is on record as 1557 m^2/kg.

In series [1] (After jet-milling (micronized)), `CC[C@H]1[C@@H](O)[C@@H]2[C@H](CC[C@]3(C)[C@@H]([C@H](C)CCC(=O)O)CC[C@@H]23)[C@@]2(C)CC[C@@H](O)C[C@@H]12` [OCA Example # 2] had a Dv (10) of 0.6 µm, a Dv (50) of 4.4 µm, a Dv (90) of 17.8 µm and a Dv (99) of 34.6 µm. For the same molecule, in series [1] (setting [2]), the Dv (10) is 1.8 µm, the Dv (50) is 19 µm, the Dv (90) was found to be 231 µm and the Dv (99) amounted to 509 µm. Further, in “Surface area by BET” (After jet-milling (micronized)), the “Surface Area (m^2/kg)” value is on record as 3848 m^2/kg. In addition, the “Surface Area (m^2/kg)” value in the series “Surface area by BET” (setting [2]) is 1854 m^2/kg.

In the case of `CC[C@H]1[C@@H](O)[C@@H]2[C@H](CC[C@]3(C)[C@@H]([C@H](C)CCC(=O)O)CC[C@@H]23)[C@@]2(C)CC[C@@H](O)C[C@@H]12` [OCA Example # 3], in series [1] (After jet-milling (micronized)), the Dv (10) came to 0.7 µm, the Dv (50) was determined as 4.9 µm, the Dv (90) turned out to be 14.1 µm and the Dv (99) was found to be 25.9 µm. In series [1] (setting [2]), this molecule displayed a Dv (10) of 5.3 µm, a Dv (50) of 39 µm, a Dv (90) of 221 µm and a Dv (99) of 513 µm. Further, the “Surface Area (m^2/kg)” value in the series “Surface area by BET” (After jet-milling (micronized)) stood at 3412 m^2/kg. Moreover, the “Surface Area (m^2/kg)” value in the series “Surface area by BET” (setting [2]) was 809 m^2/kg.

As to `CC[C@H]1[C@@H](O)[C@@H]2[C@H](CC[C@]3(C)[C@@H]([C@H](C)CCC(=O)O)CC[C@@H]23)[C@@]2(C)CC[C@@H](O)C[C@@H]12` [Unmilled API (no comil)], in series [1], the D10 was 4.8 and 3.3; the D50 is 218.6 and 167.7; the D75 was 335.7 and 273.7; the D90 was 427.6 and 355.6. For the same molecule, the D95 in series [1] is 472.6 and 398.2. In series [1] (listed as Unmilled API), this molecule showed a D10 of 4.8, a D50 of 218.6 and a D90 of 427.6.
